One data set relates to gastric acid secretion. Nature of the data set: gastric acid secretion test (Shay). In kind it is in vivo, rat. To be noted: rats. How it is done: The test was carried out according to Shay's operational method. […] On the day of the test the pylorus of the animals was bound under ether narcosis. The test compounds were administered orally 3 hours before the operation. The animals of the control group were administered with the carrier only. 4 hours after the operation the stomach was removed, the content thereof was centrifuged and the amount of free acid was determined by titration with 0.1N sodium hydroxide.

Data set [1] can be described thus: acute toxicity test in mice (Litchfield and Wilcoxon). Format: in vivo, mouse. To be noted: mouse, in vivo, po., 14 days observation. A digest of the protocol: (§1)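 CFLP white mice of both sexes (18-22 g, 10 per dose group) were dosed orally at a volume of 20 ml/kg. Animals had free access to water and feed. Toxicity data were calculated by the Litchfield and Wilcoxon method.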

Data set [2] can be described thus: absorption judged by ED50 per os/ED50 iv. To be noted: in vivo. From the text:
The compounds of formula I according to the invention can well be absorbed if administered either orally or parenterally.

A further data set in a line: LD50 po. on rat. Particulars: in vivo.
Data set [3] concerns peristalty of stomach and intestines. Nature of the data set: effect exerted on the peristalty of stomach and intestines (Stickney et al., carbon suspension). Format: in vivo, mouse. To be noted: po., mice; for TI (therapeutic index): antiperistaltic. The procedure: The antiperistaltic effect of the compounds was examined by the method of Stickney et al. on white mice of both sexes, weighing 20 to 25 g. The compounds to be tested were administered per os 60 minutes before the addition of carbon suspension to groups containing 10 mice each. The animals of the control groups were treated at the same time and in the same manner with the carrier only. The mice were killed 10 minutes after the addition of the carbon suspension, and the whole length of the intestines as well as the length of the intestines filled with carbon suspension were measured.

The subject of data set [4] is aconitine-induced ECG alterations. Nature of the data set: animal or person. Particulars: for ED50 / change in vivo at 4 mg/kg / change in vivo at 100 mg/kg: Rattus norvegicus; for change in vivo at 4 mg/kg / change in vivo at 100 mg/kg: read-out: Effect % (antiarrhythmic). In kind it is in vivo, rat. A digest of the protocol: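 Urethane-anaesthetised rats (1.2 g/kg ip., 160–200 g) given aconitine 75 /ug/kg i.v. bolus; lead II ECG scored 0–5 over 5 minutes. Compounds given 2 min (parenteral) or 60 min (oral) before aconitine.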

The test system of a further data set is nervus ischiadicus. Nature of the data set: local analgesic effect (Truant d'Amato's method). Particulars: for EC50 %: 0.2 ml injected around nervus ischiadicus; for Duration of effect: in a conc. of 0.5%. In kind it is in vivo. How it is done: The tests were carried out according to Truant d'Amato's method. 0.2 ml of test material was injected around the nervus ischiadicus in the middle of femur with a needle of 1 cm length. The criterion of analgesic effect was the lack of the motoric control of foot muscles.
The duration of effect was registered and the 50 percentile effective concentration (EC50) was calculated on the basis of the dose-effect curve. Lidocain was used as comparative material. (Truant, A. P., D'Amato, D.: Acta Chir Scand. 116, 351/1958/)

Data set [5] has as its system coronary insufficiency caused by vasopressine. Nature of the data set: antianginal effect on rats (vasopressine coronary insufficiency, Nieschulz). Particulars: iv., rats, vasopressine 1 NE/kg iv. Format: in vivo, rat. How it is done:
The test was carried out by using rats weighing 180 to 220 g. The animals were narcotised by chloralose urethane (70 to 700 mg/kg ip.). The ECG alterations were registered in standard II lead with the aid of needle electrodes. The antianginal effect was measured with Nieschultz's method. The coronary insufficiency was caused by vasopressine (1 NE/kg, iv.). The size of the T-wave was measured before and after administration of vasopressine in both the control and test groups. The compounds of the invention were administered 2 minutes before the administration of vasopressine. (Nieschulz, O., Popendiker, K., Hoffmann, I.: Arzneimittel-Forschung 5, 680/1955/)

The next data set concerns white mice (CFLP strain). Nature of the data set: acute toxicity test in mice (Litchfield and Wilcoxon). In kind it is in vivo, mouse. To be noted: po., 14 days observation. A digest of the protocol: as §1
The test system of a further data set is hexobarbital narcosis. Nature of the data set: narcosis potentiating effect (hexobarbital sleeping time). To be noted: mice, po.
The subject of another data set is beta-adrenergic. Particulars: background art; cited from earlier work.
The subject of a further data set is blood pressure. Particulars: background art; cited from earlier work.
The test system of a further data set is level of lipids. To be noted: background art; cited from earlier work.
The mark [6] stands for this setting: iv, read-out: ED50 iv. (antiarrhythmic).
Setting [7] is: po, read-out: ED50 (antiarrhythmic, per os).

Read-outs that look alike come from different tables or passages of the source. A value given as a limit tells only on which side of the number the result lay.

These results are taken from patent US5234934A, “Aminopropanol derivatives, process for their preparation and pharmaceutical compositions comprising the same” (priority 1989, dated 1993).

Procedure for hexobarbital narcosis: The narcosis potentiating effect of the compounds of the invention were examined on white mice, with 6 animals in each group. The mice were administered orally with the compounds of the invention, then both the control and the test groups were intravenously added 40 mg/kg of hexobarbital in order to make the mice sleep (Kaergard et al.).

The term LD50 denotes the dose at which mortality reaches 50%. Low readings indicate greater toxicity, high ones lower toxicity. Broadly, the ED50 is the dose at which the effect has come halfway, by size or by number of responders. As to `CC(C)N(CC(O)CO/N=C1\CCCC\C1=C/c1ccccc1)C(C)C` (racemic) [Example 1, R,S-2-(E)-Phenylmethylene-1-(E)-{3-[bis-(1-methylethyl)-amino]-2-hydroxy-propoxyimino}-cyclohexane], in the data set with gastric acid secretion (Rattus norvegicus, dose 200 mg/kg po., read-out: Inhibition of free acid, %), the inhibition in vivo at 200 mg/kg stood at 70%. In addition, in data set [1], the LD50 at 336 h came out at 400 mg/kg. The absorption ratio (ED50 po / ED50 iv) in data set [2] was 20.6. Moreover, the absorption result in data set [2] (po) is reported as “much better than that of the cited compound of formula (e)”. The compound also returned a 50% lethal dose (LD50) in the data set “LD50 po. on rat” of 1760 mg/kg. Also, the 50% effective dose (ED50) in data set [3] (Mus musculus, read-out: ED50 (antiperistaltic)) was about 80 mg/kg; in data set [4] (iv, read-out: ED50 iv), 1.21 mg/kg; in data set [4] (setting [6]) it was 1.21 mg/kg; in data set [4] (setting [7]) it was 27.3 mg/kg; in [4] (po, read-out: ED50 per os) it was 24.4 mg/kg. For the same compound, the “TI (therapeutic index)” value is given as “about 5” in [3] and 64.6 in data set [4] (antiarrhythmic, per os, rat). Further, in data set [4] (iv), the change in vivo at 4 mg/kg is -89.5%. Also, the change in vivo at 100 mg/kg in [4] (po) was -100%. Moreover, the “effect compared to the control compounds regarding the absolute dose” value in data set [4] (administered orally) is on record as “multiplied effect compared to the control compounds”. In addition, the “therapeutical activity range, times higher than that of Quinidine” value in data set [4] (per os, rats, vs Quinidine) came to 5.8 times. Besides, in the data set with nervus ischiadicus, the EC50 % worked out at 0.04%.

As to `CCCN(CCC)CC(O)CO/N=C1\CCCCC\C1=C/c1ccc(OC)cc1` (racemic) [Example 51, R,S-2-(E)-(4-Methoxyphenyl-methylene)-1-(E)-(3-dipropylamino-2-hydroxy-propoxyimino)-cycloheptane], the LD50 at 336 h in data set [1] was in the range of 100 to 500 mg/kg. Further, in [5] (Rattus norvegicus, read-out: ED50 (antianginal)), the median effective dose (ED50) came out at 0.43 mg/kg. For the same compound, in the data set with nervus ischiadicus, the EC50 % is 0.28% and the Duration of effect amounted to 103 min.

Turning to `CC(C)CNCC(O)CON=C1CCCCC1=Cc1cccc(Cl)c1` (stereo not drawn) [Example 25, R,S-2-(E)-3-Chlorophenylmethylene-1-(E)-[3-(2-methylpropyl-amino)-2-hydroxy-propoxyimino]-cyclohexane], the 50% lethal dose (LD50) with white mice (CFLP strain) was determined as 900 mg/kg.

`CC(C)NCC(O)CO/N=C1\CCCC\C1=C/c1ccc(Cl)cc1` (stereo not drawn) [Example 26, R,S-2-(E)-(4-Chlorophenyl-methylene)-1-(E)-[3-(1-methylethylamino)-2'-hydroxy-propoxyimino]-cyclohexane]: the “Inhibition of free acid, %” value in the data set with gastric acid secretion (dose 100 mg/kg po.) was found to be 66%; with gastric acid secretion (dose 200 mg/kg po.), 92%. Further, the “TI (therapeutic index)” value with hexobarbital narcosis (narcosis potentiation) is given as over 7. Moreover, the “ED50 (narcosis potentiation)” value in the data set on hexobarbital narcosis (hexobarbital 40 mg/kg iv) was 140 mg/kg. Besides, the LD50 result in the data set with white mice (CFLP strain) was “more than 1000 mg/kg”. Also, in data set [5], the “ED50 (antianginal)” value is “about 2.0 mg/kg”. The EC50 % in the data set with nervus ischiadicus is given as 0.22%. This compound also had a Duration of effect with nervus ischiadicus of 49 min.

Regarding `CCCNCC(O)CO/N=C1\CCCC\C1=C/c1ccc(Cl)cc1` (stereo not drawn) [Example 46, R,S-2-(E)-(4-Chlorophenyl-methylene)-1-(E)-(3-propylamino-2-hydroxypropoxyimino)-cyclohexane], the LD50 entry in the data set with white mice (CFLP strain) is given as “more than 1000 mg/kg”. Also, in the data set with nervus ischiadicus, the EC50 % is 0.19% and the Duration of effect was determined as 81 min.

For `CC(=NOCC(O)CNC(C)(C)C)C1CC1` (stereo not drawn) [Falintolol], the beta-adrenergic blocking effect result in the data set with beta-adrenergic was “exhibits beta-adrenergic blocking activity”.

In the case of `CC(C)(C)NCC(O)CON=C1c2ccccc2-c2ccccc21` (stereo not drawn) [IPS-339], the beta-adrenergic blocking effect entry with beta-adrenergic is listed as “exhibits beta-adrenergic blocking effect”.

Consider `COc1cccc(C=NOCC(O)CN2CCN(c3ccccc3OC)CC2)c1` (stereo not drawn) [Paradoxime], for which the “blood pressure reducing activity” value with blood pressure is on record as “shows blood pressure reducing activity”.

For the compound `OC(CON=Cc1ccc(Cl)cc1)CN1CCN(c2ccccc2Cl)CC1` (stereo not drawn) [Peraclopone], in the data set on level of lipids, the “reduction of the level of lipids” value is listed as “reduces the level of lipids”.

The compound `C=C[C@H]1C[N@@]2CC[C@H]1C[C@@H]2[C@@H](O)c1ccnc2ccc(OC)cc12` [Quinidine, reference compound] returned an LD50 in “LD50 po. on rat” of 1130 mg/kg. Further, the figures for the ED50 in data set [4] (setting [6]) and in data set [4] (setting [7]) were 9.85 mg/kg and about 100 mg/kg, respectively. Moreover, the change in vivo at 4 mg/kg in [4] (iv) was -29%. Besides, the change in vivo at 100 mg/kg in data set [4] (po) was -52%.

As to “R,S-2-(E)-Chlorophenylmethylene-1-(E)-[3-(4-phenyl-1-piperazinyl)-2-hydroxy-propoxyimino]-cyclohexane [Example 24]”, in the data set on white mice (CFLP strain), the 50% lethal dose (LD50) entry is “more than 1000 mg/kg”. In [3], the “TI (therapeutic index)” value is “about 7” and the “ED50 (antiperistaltic)” value is “about 150 mg/kg”.
